The record followed here is ChEMBL document CHEMBL4610114, “Fragment-Based Discovery of Pyrazolopyridones as JAK1 Inhibitors with Excellent Subtype Selectivity” (J Med Chem, 2020).

≈ marks a conversion by molar mass, not a printed value.

The target in data set [1] is T1, Tyrosine-protein kinase JAK1 (Homo sapiens, UniProt P23458).
The target of data set [2] is T2, Tyrosine-protein kinase JAK3 (Homo sapiens, UniProt P52333).
T2 sequence (P52333 whole entry): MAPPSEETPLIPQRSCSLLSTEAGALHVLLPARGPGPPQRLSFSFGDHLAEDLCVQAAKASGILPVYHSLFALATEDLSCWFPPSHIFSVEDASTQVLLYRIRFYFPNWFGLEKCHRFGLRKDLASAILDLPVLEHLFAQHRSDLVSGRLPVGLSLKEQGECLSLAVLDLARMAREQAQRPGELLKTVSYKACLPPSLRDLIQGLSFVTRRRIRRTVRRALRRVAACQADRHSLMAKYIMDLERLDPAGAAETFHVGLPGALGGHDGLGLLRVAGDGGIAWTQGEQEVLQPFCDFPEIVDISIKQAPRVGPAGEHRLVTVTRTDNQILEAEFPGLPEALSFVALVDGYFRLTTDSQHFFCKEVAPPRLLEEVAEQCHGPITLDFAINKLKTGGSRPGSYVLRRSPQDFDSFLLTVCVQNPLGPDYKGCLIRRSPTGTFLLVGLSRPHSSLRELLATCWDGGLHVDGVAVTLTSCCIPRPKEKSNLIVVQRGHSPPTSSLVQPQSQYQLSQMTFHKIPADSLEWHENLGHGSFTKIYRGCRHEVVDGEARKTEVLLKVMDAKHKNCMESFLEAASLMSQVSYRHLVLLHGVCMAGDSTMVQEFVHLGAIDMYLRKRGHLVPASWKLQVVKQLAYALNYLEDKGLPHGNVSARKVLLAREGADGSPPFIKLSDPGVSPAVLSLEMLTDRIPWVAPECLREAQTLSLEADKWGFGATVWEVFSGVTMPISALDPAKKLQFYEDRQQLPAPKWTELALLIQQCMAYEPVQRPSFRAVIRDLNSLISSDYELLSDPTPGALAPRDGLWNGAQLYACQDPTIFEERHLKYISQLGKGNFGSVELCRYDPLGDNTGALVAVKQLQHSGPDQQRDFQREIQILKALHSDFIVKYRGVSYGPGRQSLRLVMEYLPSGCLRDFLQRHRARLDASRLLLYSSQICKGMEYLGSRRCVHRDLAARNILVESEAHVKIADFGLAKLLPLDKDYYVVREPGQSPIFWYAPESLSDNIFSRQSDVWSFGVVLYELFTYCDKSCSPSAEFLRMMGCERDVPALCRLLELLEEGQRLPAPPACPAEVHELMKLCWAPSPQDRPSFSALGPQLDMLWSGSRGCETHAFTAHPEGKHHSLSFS

Data set [3] has as its target T1, Tyrosine-protein kinase JAK1. The source holds these as a separate data set.
Description: Inhibition of JAK1 in human STAT6-bla-RA1 cells assessed as reduction in IL4-induced STAT6-signalling pre-incubated for 1 hrs before human recombinant IL4 addition and further incubated for 4 hrs fluorescence based assay
Another data set is described as follows: in vitro. The conditions noted are these: human, liver microsomes. (In general: Liver microsomes are vesicles of endoplasmic reticulum, rich in cytochrome P450 enzymes.)
Data set [4] can be described thus: physchem. The conditions noted are these: octanol/water.
Description: Lipophilicity, logD of the compound by shake flask assay
The nature of data set [5]: physchem. The conditions noted are these: PBS buffer, pH 7.4.
Description: Aqueous solubility in PBS buffer at pH 7.4 by HPLC analysis
The target of data set [6] is T3, Tyrosine-protein kinase JAK2 (Homo sapiens, UniProt O60674).
T3 sequence (O60674 whole entry): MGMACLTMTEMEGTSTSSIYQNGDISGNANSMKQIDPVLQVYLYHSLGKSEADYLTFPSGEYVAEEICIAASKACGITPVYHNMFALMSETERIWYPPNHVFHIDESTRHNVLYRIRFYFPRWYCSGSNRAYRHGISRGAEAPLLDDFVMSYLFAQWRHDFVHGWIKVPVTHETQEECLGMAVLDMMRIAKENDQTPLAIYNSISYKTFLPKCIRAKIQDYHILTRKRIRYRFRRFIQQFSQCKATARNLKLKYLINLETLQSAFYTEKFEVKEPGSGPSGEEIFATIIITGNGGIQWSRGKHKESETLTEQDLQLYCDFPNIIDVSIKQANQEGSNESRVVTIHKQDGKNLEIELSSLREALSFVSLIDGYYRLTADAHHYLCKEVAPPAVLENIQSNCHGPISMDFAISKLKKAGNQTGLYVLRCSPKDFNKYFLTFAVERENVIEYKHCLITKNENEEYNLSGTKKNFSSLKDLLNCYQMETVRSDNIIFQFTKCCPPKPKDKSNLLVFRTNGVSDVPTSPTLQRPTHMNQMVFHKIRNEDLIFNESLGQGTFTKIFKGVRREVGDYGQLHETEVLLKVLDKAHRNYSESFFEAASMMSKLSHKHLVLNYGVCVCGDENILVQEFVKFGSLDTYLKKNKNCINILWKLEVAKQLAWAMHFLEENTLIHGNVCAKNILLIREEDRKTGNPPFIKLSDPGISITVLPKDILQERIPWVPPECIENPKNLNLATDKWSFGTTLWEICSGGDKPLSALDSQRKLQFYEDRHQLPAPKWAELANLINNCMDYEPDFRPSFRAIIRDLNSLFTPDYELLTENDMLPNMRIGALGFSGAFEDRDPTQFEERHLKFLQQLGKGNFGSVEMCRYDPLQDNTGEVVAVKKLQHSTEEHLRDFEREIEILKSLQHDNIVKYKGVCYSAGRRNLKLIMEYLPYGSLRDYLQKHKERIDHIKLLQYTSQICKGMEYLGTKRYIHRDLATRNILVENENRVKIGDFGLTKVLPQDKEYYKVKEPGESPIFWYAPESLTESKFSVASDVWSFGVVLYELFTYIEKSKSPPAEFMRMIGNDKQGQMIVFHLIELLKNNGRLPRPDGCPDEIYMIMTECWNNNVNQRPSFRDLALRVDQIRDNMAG
Data set [7] has as its target Non-receptor tyrosine-protein kinase TYK2 (Homo sapiens, UniProt P29597).
Data set [8] deals with T3, Tyrosine-protein kinase JAK2. The source holds these as a separate data set.
Description: Inhibition of JAK2 in human STAT5-irf1-bla TF1 cells assessed as reduction in EPO-induced STAT5-signalling pre-incubated for 1 hrs before EPO addition and further incubated for 4 hrs fluorescence based assay

The IC50 is the concentration that gives 50% inhibition. High values mean lower potency, low ones higher potency. What is called CLint scaled is a measure of how fast metabolising enzymes remove a compound, apart from limits set by blood flow. Broadly, the logD is the decadic logarithm of the distribution of all forms, ionised or not, between an organic phase and buffer at a given pH. Read a high logD as higher lipophilicity. For orientation: solubility means the concentration that dissolves in the medium under given conditions. Higher therefore signals a readily soluble substance.

T1 sequence (P23458 whole entry): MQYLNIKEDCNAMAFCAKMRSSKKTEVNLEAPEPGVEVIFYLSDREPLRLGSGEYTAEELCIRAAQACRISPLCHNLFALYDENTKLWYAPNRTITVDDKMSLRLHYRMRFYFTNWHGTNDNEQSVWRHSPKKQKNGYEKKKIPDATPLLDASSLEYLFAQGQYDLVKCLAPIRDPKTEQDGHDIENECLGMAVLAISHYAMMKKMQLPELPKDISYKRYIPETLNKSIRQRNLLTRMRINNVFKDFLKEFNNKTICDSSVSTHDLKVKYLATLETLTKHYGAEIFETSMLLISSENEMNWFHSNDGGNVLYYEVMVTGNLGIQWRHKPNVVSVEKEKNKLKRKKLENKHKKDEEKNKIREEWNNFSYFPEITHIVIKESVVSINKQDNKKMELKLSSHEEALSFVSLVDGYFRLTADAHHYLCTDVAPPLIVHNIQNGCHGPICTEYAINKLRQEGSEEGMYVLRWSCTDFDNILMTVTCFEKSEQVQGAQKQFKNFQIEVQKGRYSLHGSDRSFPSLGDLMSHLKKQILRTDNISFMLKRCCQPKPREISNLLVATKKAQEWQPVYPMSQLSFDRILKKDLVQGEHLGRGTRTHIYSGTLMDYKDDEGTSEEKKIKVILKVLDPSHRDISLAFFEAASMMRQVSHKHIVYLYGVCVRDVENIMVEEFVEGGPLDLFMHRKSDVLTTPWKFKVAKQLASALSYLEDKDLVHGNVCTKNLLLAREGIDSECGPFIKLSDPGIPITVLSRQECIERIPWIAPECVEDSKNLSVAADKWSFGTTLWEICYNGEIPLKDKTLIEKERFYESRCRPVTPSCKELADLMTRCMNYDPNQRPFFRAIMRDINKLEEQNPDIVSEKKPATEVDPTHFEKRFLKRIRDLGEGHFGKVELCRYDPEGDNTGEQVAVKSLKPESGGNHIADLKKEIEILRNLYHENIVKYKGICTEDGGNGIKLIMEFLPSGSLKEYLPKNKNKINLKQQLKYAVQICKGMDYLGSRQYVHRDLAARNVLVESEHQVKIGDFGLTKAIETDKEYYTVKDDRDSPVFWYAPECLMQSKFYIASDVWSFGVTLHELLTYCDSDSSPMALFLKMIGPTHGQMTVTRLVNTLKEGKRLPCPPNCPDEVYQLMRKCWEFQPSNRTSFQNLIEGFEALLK
Non-receptor tyrosine-protein kinase TYK2, sequence (P29597 whole entry): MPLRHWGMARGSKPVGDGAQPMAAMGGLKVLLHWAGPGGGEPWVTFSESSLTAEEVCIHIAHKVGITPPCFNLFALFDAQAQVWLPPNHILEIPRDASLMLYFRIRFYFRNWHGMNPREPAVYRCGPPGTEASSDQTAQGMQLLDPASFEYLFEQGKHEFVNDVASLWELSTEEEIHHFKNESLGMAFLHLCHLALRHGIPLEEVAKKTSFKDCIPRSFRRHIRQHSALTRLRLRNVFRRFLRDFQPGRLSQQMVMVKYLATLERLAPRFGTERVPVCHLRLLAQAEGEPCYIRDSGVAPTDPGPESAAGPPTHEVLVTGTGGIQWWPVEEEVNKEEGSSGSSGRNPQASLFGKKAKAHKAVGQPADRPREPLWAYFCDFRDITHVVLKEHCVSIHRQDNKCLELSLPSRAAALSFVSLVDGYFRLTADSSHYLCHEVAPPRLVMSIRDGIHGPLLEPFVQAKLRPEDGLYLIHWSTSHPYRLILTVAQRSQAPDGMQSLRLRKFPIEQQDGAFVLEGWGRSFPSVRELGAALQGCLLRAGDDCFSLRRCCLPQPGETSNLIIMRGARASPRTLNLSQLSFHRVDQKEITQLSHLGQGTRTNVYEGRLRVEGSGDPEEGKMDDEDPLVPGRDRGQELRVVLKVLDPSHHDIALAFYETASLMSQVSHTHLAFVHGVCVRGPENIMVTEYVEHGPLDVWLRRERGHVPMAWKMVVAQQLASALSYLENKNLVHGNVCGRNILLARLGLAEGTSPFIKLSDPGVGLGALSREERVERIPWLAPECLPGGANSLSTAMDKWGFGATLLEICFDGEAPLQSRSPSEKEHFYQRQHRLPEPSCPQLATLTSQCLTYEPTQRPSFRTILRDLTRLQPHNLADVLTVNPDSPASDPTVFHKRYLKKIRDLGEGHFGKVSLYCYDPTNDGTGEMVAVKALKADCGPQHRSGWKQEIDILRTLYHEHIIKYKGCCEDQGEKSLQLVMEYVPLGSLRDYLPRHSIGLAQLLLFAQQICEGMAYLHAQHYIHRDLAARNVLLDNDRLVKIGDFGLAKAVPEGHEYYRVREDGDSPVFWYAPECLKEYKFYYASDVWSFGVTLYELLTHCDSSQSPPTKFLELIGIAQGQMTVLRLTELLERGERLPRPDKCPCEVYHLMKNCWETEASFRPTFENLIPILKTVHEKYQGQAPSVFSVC
Description for in vitro: Apparent intrinsic clearance in human liver microsomes

In the case of `Cc1[nH]nc2[nH]c(=O)cc([C@H]3CC[C@H](CC(=O)N4CC(Cc5ccccc5)C4)CC3)c12`, the results for the half-inhibitory concentration (IC50) in data set [1], in data set [2] and in [3] were 3 nM, 88 nM and 250 nM, respectively. The compound also registered an intrinsic clearance (CLint scaled) in the data set “in vitro” of 87 mL/min/kg. For the same compound, the log distribution coefficient (logD) in “physchem [4]” worked out at 3. In “physchem [5]”, this compound displayed a solubility of 2.4 µM (≈ 1 µg/mL).

Take `Cc1[nH]nc2[nH]c(=O)cc([C@H]3C[C@H]4C[C@@H]3C[C@H]4CC#N)c12`: the half-inhibitory concentration (IC50) in [2] was 970 nM; in data set [6] it was 360 nM; in data set [7] it was 330 nM; in data set [8], above 43 µM. The compound also had an intrinsic metabolic clearance (CLint scaled) in “in vitro” below 8 mL/min/kg. The same compound yielded a logD in “physchem [4]” of 1.6. Moreover, the solubility in “physchem [5]” was determined as 290 µM (≈ 81.9 µg/mL).

On to `Cc1[nH]nc2[nH]c(=O)cc([C@H]3CC[C@H](CC(=O)N4CC(C#N)C4)CC3)c12`, for which the IC50 in data set [1] is 13 nM; in data set [2] it was 97 nM; in data set [3], above 30000 nM; in data set [6] it was 64 nM; in [8], above 30 µM. Further, the intrinsic metabolic clearance (CLint scaled) in “in vitro” was below 8 mL/min/kg. This compound came in with a log distribution coefficient (logD) in the data set “physchem [4]” of 0.5. Also, the solubility in “physchem [5]” came to 540 µM (≈ 191 µg/mL).

For the compound `Cc1[nH]nc2[nH]c(=O)cc([C@H]3CC[C@H](NC(=O)[C@@H]4CC4(F)F)CC3)c12`, the half-inhibitory concentration (IC50) in [1] was 6.4 nM; in data set [2] it was 480 nM; in [3], 1700 nM; in [6] it was 120 nM; in data set [7], 220 nM; in [8], above 7 µM. This compound also had a pH-dependent lipophilicity (logD) in “physchem [4]” of 1.3. Further, the solubility in the data set “physchem [5]” was 43 µM (≈ 15.1 µg/mL).

Take `Cc1[nH]nc2[nH]c(=O)cc(C3CCCCC3)c12`: the IC50 in [1] was 130 nM; in data set [2], 550 nM; in data set [3], 3700 nM; in [6], 1300 nM; in [7], 670 nM; in [8], above 40 µM. In addition, the log distribution coefficient (logD) in the data set “physchem [4]” is 2.8. Besides, the concentration in solution in “physchem [5]” (solubility) was 4 µM (≈ 0.925 µg/mL).

On to `Cc1[nH]nc2[nH]c(=O)cc(C3CC4CCC3CC4)c12` (racemic), for which the IC50 worked out at 54 nM in data set [1]; 65 nM in [2]; 890 nM in data set [3]; 330 nM in [6]; 220 nM in [7]; 9.1 µM in [8]. In “physchem [4]”, the logD was 3.3. For the same compound, the concentration in solution in “physchem [5]” (solubility) came to 8 µM (≈ 2.06 µg/mL).

With `Cc1[nH]nc2[nH]c(=O)cc([C@H]3CC[C@H](CC(=O)N4CCC(C)(C)CC4)CC3)c12`, the IC50 in [1] worked out at 3.4 nM; in data set [2] it was 57 nM; in data set [3], 110 nM; in [6], 32 nM; in data set [8], 3.4 µM. In the data set “in vitro”, this compound yielded an intrinsic clearance (CLint scaled) of 70 mL/min/kg. Besides, in the data set “physchem [4]”, the logD worked out at 2.9.

As for `Cc1[nH]nc2[nH]c(=O)cc([C@H]3CC[C@H](CC(=O)N4CCC(C#N)C4)CC3)c12` (mixture of isomers), the IC50 is 11 nM in data set [1]; 150 nM in data set [2]; 14000 nM in data set [3]; 89 nM in [6]; above 45 µM in data set [8]. This compound showed a CLint scaled in “in vitro” below 8 mL/min/kg. Also, in “physchem [4]”, the logD amounted to 0.7. Also, the concentration in solution in “physchem [5]” (solubility) was 85 µM (≈ 31.2 µg/mL).

Consider `Cc1[nH]nc2[nH]c(=O)cc([C@H]3CC[C@H](CC(=O)N4CCC(c5ccccc5)C4)CC3)c12` (mixture of isomers), for which the IC50 was determined as 2.1 nM in [1]; 63 nM in [2]; 110 nM in data set [3]; 19 nM in [6]; 2.4 µM in data set [8]. The compound further returned a CLint scaled in the data set “in vitro” of 75 mL/min/kg. Besides, in “physchem [4]”, the log distribution coefficient (logD) amounted to 3.

As for `Cc1[nH]nc2[nH]c(=O)cc([C@@H]3C[C@H]4CC[C@@H]3C4)c12` (racemic), the IC50 in data set [1] was 44 nM; in data set [2], 180 nM; in data set [3], 1000 nM; in data set [6] it was 380 nM; in [7], 150 nM; in data set [8] it was above 40 µM. In “physchem [4]”, this compound yielded a logD of 2.7. The same compound showed a solubility in the data set “physchem [5]” of 33 µM (≈ 8.03 µg/mL).
